Test results: ChEMBL document CHEMBL3885861, “Open TG-GATES”

Species on record: Rattus norvegicus
Test: Open TG-GATES - Regimen: Daily Repeat
Type: toxicity, organism-based, Sprague-Dawley
Set-up: regimen Daily Repeat, gender Male, age 6 weeks
Conditions: in vivo, po, 0 mg/kg, route gavage, dose level Control; for APTT / Bas / Eos / Fbg / Hb / Ht / Lym / MCH / MCHC / MCV / Mono / Neu / PT / Plat / RBC / Ret / WBC: tissue Blood; for KIDNEY_L / KIDNEY_R / KIDNEY_TOTAL: tissue Kidney; for LIVER: tissue Liver; for A/G / ALP / ALT / AST / BUN / CRE / Ca / Cl / DBIL / GLC / IP / K / LDH / Na / PL / RALB / TBIL / TC / TG / TP / gamma-GTP: tissue Plasma

Structure (SMILES): NC1=NC(=O)C(c2ccccc2)O1 (configuration not stated) [PEMOLINE]
- TERMINAL_BW (72 h, time 3 day): 236.5 g
- APTT (72 h, time 3 day): 16.2 s
- Bas (72 h, time 3 day): 0%
- Eos (72 h, time 3 day): 1%
- Fbg (72 h, time 3 day): 282.2 mg/dL
- Hb (72 h, time 3 day): 13.4 g/dL
- Ht (72 h, time 3 day): 39.7%
- Lym (72 h, time 3 day): 77.6%
- MCH (72 h, time 3 day): 21.7 pg
- MCHC (72 h, time 3 day): 33.7%
- MCV (72 h, time 3 day): 64.3 fL
- Mono (72 h, time 3 day): 3.4%
- Neu (72 h, time 3 day): 17.6%
- PT (72 h, time 3 day): 12.8 s
- Plat (72 h, time 3 day): 105.9 x10_4/uL
- RBC (72 h, time 3 day): 617.8 x10_4/ul
- Ret (72 h, time 3 day): 8%
- WBC (72 h, time 3 day): 90 x10_2/uL
- KIDNEY_L (72 h, time 3 day): 1 g
- KIDNEY_R (72 h, time 3 day): 1 g
- KIDNEY_TOTAL (72 h, time 3 day): 2 g
- LIVER (72 h, time 3 day): 11 g
- A/G (72 h, time 3 day): 0.9
- ALP (72 h, time 3 day): 1625 IU/L
- ALT (72 h, time 3 day): 43 IU/L
- AST (72 h, time 3 day): 70 IU/L
- BUN (72 h, time 3 day): 14.8 mg/dL
- CRE (72 h, time 3 day): 0.2 mg/dL
- Ca (72 h, time 3 day): 10.7 mg/dL
- Cl (72 h, time 3 day): 105.8 meq/L
- DBIL (72 h, time 3 day): 0.022 mg/dL
- GLC (72 h, time 3 day): 184 mg/dL
- IP (72 h, time 3 day): 7.6 mg/dL
- K (72 h, time 3 day): 3.9 meq/L
- LDH (72 h, time 3 day): 58.6 IU/L
- Na (72 h, time 3 day): 143 meq/L
- PL (72 h, time 3 day): 147.6 mg/dL
- RALB (72 h, time 3 day): 2.6 g/dL
- TBIL (72 h, time 3 day): 0.026 mg/dL
- TC (72 h, time 3 day): 86 mg/dL
- TG (72 h, time 3 day): 88.6 mg/dL
- TP (72 h, time 3 day): 5.5 g/dL
- gamma-GTP (72 h, time 3 day): 1 IU/L
- TERMINAL_BW ([…], time 7 day): 274.2 g
- TERMINAL_BW ([…], time 14 day): 326.9 g
- TERMINAL_BW ([…], time 28 day): 438.2 g
- APTT ([…], time 7 day): 17.2 s
- Bas ([…], time 7 day): 0.2%
- Eos ([…], time 7 day): 1%
- Fbg ([…], time 7 day): 286.6 mg/dL
- Hb ([…], time 7 day): 13.8 g/dL
- Ht ([…], time 7 day): 40%
- Lym ([…], time 7 day): 75.4%
- MCH ([…], time 7 day): 21.6 pg
- MCHC ([…], time 7 day): 34.4%
- MCV ([…], time 7 day): 62.7 fL
- Mono ([…], time 7 day): 3.4%
- Neu ([…], time 7 day): 19.2%
- PT ([…], time 7 day): 12.9 s
- Plat ([…], time 7 day): 126.1 x10_4/uL
- RBC ([…], time 7 day): 638.2 x10_4/ul
- Ret ([…], time 7 day): 6.4%
- WBC ([…], time 7 day): 103.3 x10_2/uL
- APTT ([…], time 14 day): 17.8 s
- Bas ([…], time 14 day): 0%
- Eos ([…], time 14 day): 0.8%
- Fbg ([…], time 14 day): 314 mg/dL
- Hb ([…], time 14 day): 13.9 g/dL
- Ht ([…], time 14 day): 39.7%
- Lym ([…], time 14 day): 75.2%
- MCH ([…], time 14 day): 21.3 pg
- MCHC ([…], time 14 day): 35%
- MCV ([…], time 14 day): 60.8 fL
- Mono ([…], time 14 day): 2.2%
- Neu ([…], time 14 day): 21.4%
- PT ([…], time 14 day): 12.8 s
- Plat ([…], time 14 day): 103.7 x10_4/uL
- RBC ([…], time 14 day): 653.2 x10_4/ul
- Ret ([…], time 14 day): 4.2%
- WBC ([…], time 14 day): 86.4 x10_2/uL
- APTT ([…], time 28 day): 17.4 s
- Bas ([…], time 28 day): 0.2%
- Eos ([…], time 28 day): 1%
- Fbg ([…], time 28 day): 268.4 mg/dL
- Hb ([…], time 28 day): 15.1 g/dL
- Ht ([…], time 28 day): 42.3%
- Lym ([…], time 28 day): 82.2%
- MCH ([…], time 28 day): 20.2 pg
- MCHC ([…], time 28 day): 35.7%
- MCV ([…], time 28 day): 56.5 fL
- Mono ([…], time 28 day): 2.6%
- Neu ([…], time 28 day): 12.6%
- PT ([…], time 28 day): 12.2 s
- Plat ([…], time 28 day): 108.5 x10_4/uL
- RBC ([…], time 28 day): 749.2 x10_4/ul
- Ret ([…], time 28 day): 2.8%
- WBC ([…], time 28 day): 121.3 x10_2/uL
- KIDNEY_L ([…], time 7 day): 1.1 g
- KIDNEY_R ([…], time 7 day): 1.1 g
- KIDNEY_TOTAL ([…], time 7 day): 2.2 g
- KIDNEY_L ([…], time 14 day): 1.3 g
- KIDNEY_R ([…], time 14 day): 1.3 g
- KIDNEY_TOTAL ([…], time 14 day): 2.6 g
- KIDNEY_L ([…], time 28 day): 1.4 g
- KIDNEY_R ([…], time 28 day): 1.4 g
- KIDNEY_TOTAL ([…], time 28 day): 2.9 g
- LIVER ([…], time 7 day): 13.2 g
- LIVER ([…], time 14 day): 14.4 g
- LIVER ([…], time 28 day): 18.9 g
- A/G ([…], time 7 day): 0.9
- ALP ([…], time 7 day): 1625.6 IU/L
- ALT ([…], time 7 day): 41.4 IU/L
- AST ([…], time 7 day): 68 IU/L
- BUN ([…], time 7 day): 15.4 mg/dL
- CRE ([…], time 7 day): 0.2 mg/dL
- Ca ([…], time 7 day): 10.6 mg/dL
- Cl ([…], time 7 day): 104.4 meq/L
- DBIL ([…], time 7 day): 0.022 mg/dL
- GLC ([…], time 7 day): 184 mg/dL
- IP ([…], time 7 day): 7.2 mg/dL
- K ([…], time 7 day): 3.8 meq/L
- LDH ([…], time 7 day): 80.2 IU/L
- Na ([…], time 7 day): 142 meq/L
- PL ([…], time 7 day): 160.8 mg/dL
- RALB ([…], time 7 day): 2.7 g/dL
- TBIL ([…], time 7 day): 0.028 mg/dL
- TC ([…], time 7 day): 84.2 mg/dL
- TG ([…], time 7 day): 131.8 mg/dL
- TP ([…], time 7 day): 5.8 g/dL
- gamma-GTP ([…], time 7 day): 1 IU/L
- A/G ([…], time 14 day): 0.8
- ALP ([…], time 14 day): 1289.6 IU/L
- ALT ([…], time 14 day): 46.2 IU/L
- AST ([…], time 14 day): 71.8 IU/L
- BUN ([…], time 14 day): 15.2 mg/dL
- CRE ([…], time 14 day): 0.2 mg/dL
- Ca ([…], time 14 day): 11.2 mg/dL
- Cl ([…], time 14 day): 105.4 meq/L
- DBIL ([…], time 14 day): 0.012 mg/dL
- GLC ([…], time 14 day): 180.2 mg/dL
- IP ([…], time 14 day): 8.3 mg/dL
- K ([…], time 14 day): 3.6 meq/L
- LDH ([…], time 14 day): 66.8 IU/L
- Na ([…], time 14 day): 144.6 meq/L
- PL ([…], time 14 day): 144.6 mg/dL
- RALB ([…], time 14 day): 2.7 g/dL
- TBIL ([…], time 14 day): 0.018 mg/dL
- TC ([…], time 14 day): 78.8 mg/dL
- TG ([…], time 14 day): 88.2 mg/dL
- TP ([…], time 14 day): 6 g/dL
- gamma-GTP ([…], time 14 day): 1 IU/L
- A/G ([…], time 28 day): 0.8
- ALP ([…], time 28 day): 980.4 IU/L
- ALT ([…], time 28 day): 41.2 IU/L
- AST ([…], time 28 day): 61.6 IU/L
- BUN ([…], time 28 day): 16.6 mg/dL
- CRE ([…], time 28 day): 0.2 mg/dL
- Ca ([…], time 28 day): 11.4 mg/dL
- Cl ([…], time 28 day): 104 meq/L
- DBIL ([…], time 28 day): 0.018 mg/dL
- GLC ([…], time 28 day): 182.2 mg/dL
- IP ([…], time 28 day): 6.9 mg/dL
- K ([…], time 28 day): 3.7 meq/L
- LDH ([…], time 28 day): 68.8 IU/L
- Na ([…], time 28 day): 143 meq/L
- PL ([…], time 28 day): 160.2 mg/dL
- RALB ([…], time 28 day): 2.8 g/dL
- TBIL ([…], time 28 day): 0.022 mg/dL
- TC ([…], time 28 day): 77.4 mg/dL
- TG ([…], time 28 day): 215 mg/dL
- TP ([…], time 28 day): 6.3 g/dL
- gamma-GTP ([…], time 28 day): 1 IU/L
